Source: ChEMBL document CHEMBL1126918, “Analysis of two cycloplatinated compounds derived from N-(4-methoxyphenyl)-alpha-benzoylbenzylidenamine. Comparison of the activity of these compounds with other isostructural cyclopalladated compounds” (J Med Chem, 1993)

Legend:
[1] = system: MDA-MB-468; assay: Tested for inhibition against mammary cancer MDA-MB 468 (breast carcinoma) cell lines; assay type: functional, cell-based; details: Homo sapiens
[2] = system: HL-60; assay: Tested for inhibition against leukemic HL-60 (human cancer) cell lines; assay type: functional, cell-based

Question: With CISPLATIN as the sequence, how does the ID50 [1] read?
Answer: 3300 nM

Question: What about the ID50 [2] of the same sequence?
Answer: 2300 nM
